Marks after values point to notes of the source that are not given here.
What was measured:
[1] = tested on: M5076 transplantable murine reticulum cell sarcoma
KB oral cancer = experiment: human tumor xenograft in nude mice, KB; type: in vivo; settings: Q1D × 20, 100 mg/kg/day
H-143 colorectal cancer = experiment: human tumor xenograft in nude mice, H-143; type: in vivo; settings: Q5D × 5, 300 mg/kg/day
[2] = tested on: MDA-MB-468 breast carcinoma; experiment: MDA-MB-468 breast flank xenograft model (staged); type: in vivo, human
Procedure: (§1) Following inoculation of tumor cells, tumors were passaged three times in mice before using the fragments to generate single cell suspensions. Multiple animals were used as donors. Single cell suspensions were generated by homogenizing the minced tumor tissue in RPMI 1640 media. Cell suspensions were washed three times to remove debris and other foreign materials. Viable cells were counted by trypan blue exclusion technique using a hemocytometer. Mice were injected subcutaneously with 0.5 mL of the cell suspension containing 1×10^6 cells.
For determination of the efficacy of N-(2-((4-hydroxyphenyl)amino)pyrid-3-yl)-4-methoxybenzenesulfonamide in the MDA-MB-468 Breast Flank Xenograft model, tumor cells derived from serially passaged tumor fragments were inoculated subcutaneously in female nude mice on day 0. On day 10, mice bearing established tumors were size matched and grouped at about 231 mm^3.

HT-1376 bladder = experiment: HT-1376 orthotopic tumor model; type: in vivo, human; settings: d 1-5, 11-15
H-111 gastric cancer = experiment: human tumor xenograft in nude mice, H-111; type: in vivo; settings: Q1D × 19, 80 mg/kg/day
[3] = tested on: intestinal tumors of Apc^Min (Min) mice; experiment: Apc Min mice spontaneous intestinal tumorigenesis model; type: in vivo; settings: orally once-a-day for 28 days at 150 mg/kg/day; vehicle controls 73.3
Excerpt: Apc^Min (Min) mice are models for genetically inherited intestinal cancer. These mice carry a dominant germline mutation in the Apc tumor suppressor gene that predisposes them to the development of numerous (>50) tumors throughout the intestinal tract.
The average tumor number for treated mice was 49.8 compared to 73.3 for vehicle controls. Drug treatment was initiated at an age when the tumors were well-established.

[4] = dose limiting toxicity in cancer subjects, single dose and 5-day repeated dose; type: in vivo, human
Procedure: (2-((4-hydroxyphenyl)amino)pyrid-3-yl)-4-methoxybenzenesulfonamide was evaluated in 57 cancer subjects in single dose (16 subjects) and 5-day repeated dose regimens (41 subjects). The doses administered in the single dose segment were 80 to 480 mg/m^2/day. In the 5-day repeated dose regimen (2-((4-hydroxyphenyl)amino)pyrid-3-yl)-4-methoxybenzenesulfonamide was given at 30 to 240 mg/m^2/day for a single cycle. […] Adverse drug reactions from the single dose and 5-day repeated dose segments included nausea and vomiting, diarrhea, epigastric pain, ileus and evidence of peripheral neuropathy. For the single dose segment, the dose limiting toxicity (DLT) was Grade 3 peripheral neuropathy in 1 of 5 subjects at 480 mg/m^2/day. In the 5-day repeated dose regimen the dose limiting toxicities were Grade 3 peripheral neuropathy in 1 of 4 subjects at 210 mg/m^2/day and Grade 4 intestinal paralysis in 1 of 4 subjects at 210 mg/m^2/day and in 1 of 6 subjects at 240 mg/m^2/day.

LC-11 lung cancer = experiment: human tumor xenograft in nude mice, LC-11; type: in vivo; settings: Q1D × 8, 150 mg/kg/day
[5] = tested on: HCT-15 human colon carcinoma; experiment: HCT-15 human colon carcinoma xenografts; type: in vivo
Excerpt: HCT-15 is a human colon carcinoma derived cell line. It is MDR positive, and expresses both mutant p53 and oncogenic K-ras. The HCT-15 cell line has one of the highest levels of mdr-1/P-glycoprotein expression of cells from the NCI tumor cell line panel.
Effect of Cytotoxic Agents on the Growth of HCT-15 Human Colon Carcinoma Xenografts

MX-1 breast cancer = experiment: human tumor xenograft in nude mice, MX-1; type: in vivo; settings: Q5D × 5, 450 mg/kg/day
LX-1 lung cancer = experiment: human tumor xenograft in nude mice, LX-1; type: in vivo; settings: Q1D × 20, 120 mg/kg/day
[6] = adverse side effects reported in 134 patients; type: in vivo, human; settings: of 134 patients; 200-300 mg QD, 125-175 mg BID
Procedure: For 134 patients tested, at doses of about 200 mg QD, 250 mg QD, 300 mg QD, 125 mg BID, 150 mg BID, and 175 mg BID, 16 reported anemia, of which 11 were Grades I or II and 5 were Grades (III or IV); 1 reported Grade I or II alpoecia; 8 reported Grade I or II neutropenia; and none reported fluid retention, for which Grade I is defined as mild, Grade II is defined as moderate, Grade III is defined as severe, Grade IV is defined as life threatening.

SC-6 gastric cancer = experiment: human tumor xenograft in nude mice, SC-6; type: in vivo; settings: Q5D × 5, 500 mg/kg/day
C26 colon tumors = C26 colon tumors grown in the flank of CDF-1 mice; type: in vivo
Calu-6 lung carcinoma = experiment: Calu-6 NSCL flank xenograft model (staged); type: in vivo, human
Procedure: as §1
On day 10, mice bearing established tumors were size matched and grouped at about 233 mm^3.

[7] = tested on: COLO320DM colorectal cancer; experiment: human tumor xenograft in nude mice, COLO320DM; type: in vivo; settings: Q1D × 19, 120 mg/kg/day
H-31 breast cancer = experiment: human tumor xenograft in nude mice, H-31; type: in vivo; settings: Q1D × 19, 80 mg/kg/day
LC-6 lung cancer = experiment: human tumor xenograft in nude mice, LC-6; type: in vivo; settings: Q5D × 5, 450 mg/kg/day
[8] = 150 mg/kg orally once a day for 5 days
[9] = 5-day repeated dose, 210 mg/m^2/day
[10] = oral 75 mg/kg/d QD, d 10-14, 20-24

Compound: COc1ccc(S(=O)(=O)Nc2cccnc2Nc2ccc(O)cc2)cc1 [ABT-751, N-(2-((4-hydroxyphenyl)amino)pyrid-3-yl)-4-methoxybenzenesulfonamide]
- ILS (percent increase in life span) [1, 8]: 42%
- T/C (tumor mass of test group divided by tumor mass of control group) [1, 8]: 13%
- antitumor activity in the M5076 model ([1]; in words): significant antitumor activity
- T/C (%) (KB oral cancer): 15%
- T/C (%) (H-143 colorectal cancer): 17%
- antitumor activity as single agent ([2]; 100 and 75 mg/kg/day (5 days on/5 days off)×2, 50 mg/kg/day daily): dose-dependent antitumor activity
- response in combination with docetaxel ([2]; in combination with docetaxel at 33.3 mg/kg/day): greater than additive responses
- % T/C (HT-1376 bladder; oral 100 mg/kg/d QD): 63%
- % T/C (HT-1376 bladder; oral 100 mg/kg/d b.i.d.): 86^e %
- T/C (%) (H-111 gastric cancer): 36%
- average tumor number [3]: 49.8
- dose limiting toxicity: Grade 3 peripheral neuropathy, subjects affected [4, 9]: 1 of 4
- dose limiting toxicity: Grade 4 intestinal paralysis, subjects affected [4, 9]: 1 of 4
- dose limiting toxicity: Grade 4 intestinal paralysis, subjects affected ([4]; 5-day repeated dose, 240 mg/m^2/day): 1 of 6
- dose limiting toxicity: Grade 3 peripheral neuropathy, subjects affected ([4]; single dose, 480 mg/m^2/day): 1 of 5
- T/C (%) (LC-11 lung cancer): 93%
- % ILS ([5]; 50 mg/kg/d PO, QD, days 1-8): 34%
- T/C ([5]; 50 mg/kg/d PO, QD, days 1-8, 2 trials): 50 (2)
- efficacy in HCT-15 xenografts ([5]; in words): effective in inhibiting tumor growth
- T/C (%) (MX-1 breast cancer): 21%
- T/C (%) (LX-1 lung cancer): 37%
- patients reporting Grade I or II alopecia [6]: 1
- patients reporting Grade I or II neutropenia [6]: 8
- patients reporting anemia [6]: 16
- patients reporting anemia Grades I or II [6]: 11
- patients reporting anemia Grades III or IV [6]: 5
- patients reporting fluid retention [6]: none
- T/C (%) (SC-6 gastric cancer): 22%
- antitumor activity against C26 colon tumors (C26 colon tumors; 5-day schedule): only marginally active
- antitumor activity against C26 colon tumors (C26 colon tumors; extended dosing): significant antitumor response
- antitumor activity as single agent (Calu-6 lung carcinoma; 100 and 75 mg/kg/day, (5 day on/5 day off)×2): significant antitumor activity
- response in combination with cisplatin (Calu-6 lung carcinoma; in combination with cisplatin): greater than additive responses
- % T/C (Calu-6 lung carcinoma; oral 50 mg/kg/d QD, d 1-21): 54%
- % ILS (Calu-6 lung carcinoma; [10]): 58%
- % T/C (Calu-6 lung carcinoma; [10]): 50%
- % T/C (Calu-6 lung carcinoma; oral 100 mg/kg/d QD, d 10-14, 20-24): 37%
- T/C (%) [7]: 42%
- T/C (%) (H-31 breast cancer): 13%
- T/C (%) (LC-6 lung cancer): 31%

Source: patent US20050267166A1, “Continuous dosing regimen” (priority 2004, published 2005)
